Data as given in US8476287B2, “3-hydroxy-5-arylisothiazole derivative” (Mochida Pharmaceutical Co., Ltd., priority 2009, dated 2013).
Counter-ions that a name gives are not always drawn.

Molecular target: T1, GPR40 of human origin (Homo sapiens, UniProt O14842)
T1 construct: expressed in transfected cells
Test: Agonist action on GPR40 of human origin (Ca2+ fluorescence in CHO cells)
Assay type: cell-based
Settings: CHO cell strain stably expressing GPR40 of human origin; Ca2+ concentration fluctuation, fluorescent calcium indicator
Procedure: A CHO cell strain stably expressing GPR40 of human origin was used to determine the agonist action of a subject compound. This cell strain was seeded in a clear bottom 96 well plate at 4×10^4 cells/100 μL/well. The cell strain was cultured in a CO2 incubator overnight using a Ham's F-12 medium containing a 10% fetal bovine serum, 100 U/mL penicillin, 0.1 mg/mL streptomycin, and 400 μg/mL Geneticin. Calcium 4 Assay Kit (Molecular Devices) was used as a fluorescent calcium indicator. One mL of 77 mg/mL probenecid (Invitrogen) was added to 100 mL of a calcium indicator solution to prepare a solution (loading solution) mixed with a 20 mM HEPES-containing Hanks' balanced salt solution (HBSS) in equal proportions. 200 μL of the loading solution was added to the cells from which the culture solution was removed, and the cells were cultured in a CO2 incubator for 1 hour. The subject compound was diluted with a 20 mM HEPES-containing HBSS and was added to the cells by 50 μL, and the fluctuation of the Ca^2+ concentration was measured by an intracellular ion analyzer. The EC50 value of the subject compound was calculated using the dose-response curve of fluorescence intensity variation.

T1 sequence (O14842 whole entry): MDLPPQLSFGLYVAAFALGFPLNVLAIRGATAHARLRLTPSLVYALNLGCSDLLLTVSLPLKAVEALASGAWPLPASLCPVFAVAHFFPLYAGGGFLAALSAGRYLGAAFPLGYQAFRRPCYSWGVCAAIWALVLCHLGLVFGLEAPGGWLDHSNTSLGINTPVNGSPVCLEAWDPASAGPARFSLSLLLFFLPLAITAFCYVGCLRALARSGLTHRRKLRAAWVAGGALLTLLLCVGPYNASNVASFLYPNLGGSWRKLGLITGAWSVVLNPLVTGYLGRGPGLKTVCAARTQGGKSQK

SMILES	EC50
Cc1cc(OCCCN)cc(C)c1-c1cccc(COc2ccc(-c3cc(O)n[s+]3[O-])cc2)c1 (stereo not drawn) [Example 78, 5-[4-[[3-[4-(3-aminopropoxy)-2,6-dimethylphenyl]phenyl]methoxy]phenyl]isothiazol-3-ol 1-oxide(A)]	< 300 nM
[O-][s+]1nc(O)cc1-c1ccc(OC2COc3c2cccc3C(F)(F)F)cc1 (stereo not drawn) [Example 80, 1-oxo-5-[4-[[7-(trifluoromethyl)-2,3-dihydro-1-benzofuran-3-yl]oxy]phenyl]-1,2-thiazol-3-ol (A)]	< 300 nM
[O-][s+]1nc(O)cc1-c1ccc(OC2CCOc3cc(C(F)(F)F)ccc32)cc1 (stereo not drawn) [Example 83, 5-[4-[[7-(trifluoromethyl)-3,4-dihydro-2H-chromen-4-yl]oxy]phenyl]isothiazol-3-ol 1-oxide(A)]	300 to 3000 nM
CC1(C)CCC(C)(C)c2cc(COc3ccc(-c4cc(O)n[s+]4[O-])cc3)ccc21 (stereo not drawn) [Example 85, 5-[4-[(5,5,8,8-tetramethyl-6,7-dihydronaphthalen-2-yl)methoxy]phenyl]isothiazol-3-ol 1-oxide(A)]	< 300 nM
[O-][s+]1nc(O)cc1-c1ccc(OCc2cccc(Cl)c2Cl)cc1 (stereo not drawn) [Example 86, 5-[4-[(2,3-dichlorophenyl)methoxy]phenyl]isothiazol-3-ol 1-oxide(A)]	< 300 nM
C[C@@H](Oc1ccc(-c2cc(O)n[s+]2[O-])cc1)c1cccc(Br)c1 (stereo partly drawn) [Example 88, 5-[4-[(1R)-1-(3-bromophenyl)ethoxy]phenyl]isothiazol-3-ol 1-oxide(A)]	300 to 3000 nM
Cc1c(Br)cccc1COc1ccc(-c2cc(O)n[s+]2[O-])cc1 (stereo not drawn) [Example 91, 5-[4-[(3-bromo-2-methylphenyl)methoxy]phenyl]isothiazol-3-ol 1-oxide(A)]	300 to 3000 nM
Cc1cccc(C)c1N1CCC[C@H](COc2ccc(-c3cc(O)n[s+]3[O-])cc2)C1 (stereo partly drawn) [Example 96, 5-[4-[[(3S)-1-(2,6-dimethylphenyl)piperidin-3-yl]methoxy]phenyl]isothiazol-3-ol 1-oxide (A)]	< 300 nM
[O-][s+]1nc(O)cc1-c1ccc(OCCc2cccc(Oc3ccccc3)c2)cc1 (stereo not drawn) [Example 106, 5-[4-[2-(3-phenoxyphenyl)ethoxy]phenyl]isothiazol-3-ol 1-oxide]	300 to 3000 nM
COc1ccc(-c2cccc3c2CC[C@H]3Oc2ccc(-c3cc(O)n[s+]3[O-])cc2)c(C)n1 (stereo partly drawn) [Example 119, 5-[4-[[(1R)-4-(6-methoxy-2-methylpyridin-3-yl)-2,3-dihydro-1H-inden-1-yl]oxy]phenyl]isothiazol-3-ol 1-oxide(A)trifluoroacetate salt]	< 300 nM
[O-][s+]1nc(O)cc1-c1ccc(O[C@@H]2CCc3c(C4=CCOCC4)cccc32)cc1 (stereo partly drawn) [Example 121, 5-[4-[[(1R)-4-(3,6-dihydro-2H-pyran-4-yl)-2,3-dihydro-1H-inden-1-yl]oxy]phenyl]isothiazol-3-ol 1-oxide(A)]	300 to 3000 nM

Next, values leading:

EC50	SMILES
< 300 nM	[O-][s+]1nc(O)cc1-c1ccc(OC2CCc3c(Oc4ccccc4)cccc32)cc1 (stereo not drawn) [Example 124, 5-[4-[(4-phenoxy-2,3-dihydro-1H-inden-1-yl)oxy]phenyl]isothiazol-3-ol 1-oxide(A)]
< 300 nM	Cc1ncccc1Oc1cccc2c1CCC2Oc1ccc(-c2cc(O)n[s+]2[O-])cc1 (stereo not drawn) [Example 125, 5-[4-[[4-(2-methylpyridin-3-yl)oxy-2,3-dihydro-1H-inden-1-yl]oxy]phenyl]isothiazol-3-ol 1-oxide(A)]
< 300 nM	COc1cc(Oc2cccc3c2CCC3Oc2ccc(-c3cc(O)n[s+]3[O-])cc2)ccn1 (stereo not drawn) [Example 126, 5-[4-[[4-(2-methoxypyridin-4-yl)oxy-2,3-dihydro-1H-inden-1-yl]oxy]phenyl]isothiazol-3-ol 1-oxide(A)]
< 300 nM	[O-][s+]1nc(O)cc1-c1ccc(OC2CCc3c(OCc4ccccc4)cccc32)cc1 (stereo not drawn) [Example 129, 5-[4-[(4-phenylmethoxy-2,3-dihydro-1H-inden-1-yl)oxy]phenyl]isothiazol-3-ol 1-oxide(A)]
< 300 nM	[O-][s+]1nc(O)cc1-c1ccc(OC2CCc3c(OC4CCCCC4)cccc32)cc1 (stereo not drawn) [Example 131, 5-[4-[(4-cyclohexyloxy-2,3-dihydro-1H-inden-1-yl)oxy]phenyl]isothiazol-3-ol 1-oxide(A)]
< 300 nM	[O-][s+]1nc(O)cc1-c1ccc(OC2CCc3c(OC4CCOCC4)cccc32)cc1 (stereo not drawn) [Example 132, 5-[4-[[4-(oxan-4-yloxy)-2,3-dihydro-1H-inden-1-yl]oxy]phenyl]isothiazol-3-ol 1-oxide(A)]
300 to 3000 nM	[O-][s+]1nc(O)cc1-c1ccc(COCc2cccc(Br)c2)cc1 (stereo not drawn) [Example 141, 5-[4-[(3-bromophenyl)methoxymethyl]phenyl]isothiazol-3-ol 1-oxide]
